The values that follow come from PMC7684578, “Isopedopeptins A–H: Cationic Cyclic Lipodepsipeptides from Pedobacter cryoconitis UP508 Targeting WHO Top-Priority Carbapenem-Resistant Bacteria” (ACS Chemical Biology, 2020).

Read-outs that look alike come from different tables or passages of the source. Starred links: 1 amine or outer side, 2 acyl side, 3 side chain; linkers in the order of their positions; H or OH if unused. Positions of bridges follow the written chain, without caps; N, C: chain ends. Non-standard residues stand in square brackets, D forms with d. Residues, ends and D or L forms follow the SMILES beside them. X4 = CC(C)CCC=CCCC[C@H](CC(=O)[*:1])O[*:2]; X6 = CC(C)CCCCC=CC[C@H](CC(=O)[*:1])O[*:2]; X5 = CC(C)CCCCCCC[C@H](CC(=O)[*:1])O[*:2]; X3 = CC(C)CCCCC[C@H](CC(=O)[*:1])O[*:2]; X7 = CCCCCCC=CC[C@H](CC(=O)[*:1])O[*:2]; X2 = CCCCCCC[C@H](CC(=O)[*:1])O[*:2]; Val(3-OH) = CC(C)(O)[C@H](N)C(=O)O; X1 = C/C=C(/N[*:1])C(=O)[*:2]; Dab = NCC[C@H](N)C(=O)O; Dap = NC[C@H](N)C(=O)O

The test relates to HepG2 cells. The test is described as follows: In vitro cytotoxicity, fluorometric microculture cytotoxicity assay. In kind it is cell-based. To be noted: Homo sapiens, HepG2 liver, 72 h. The protocol:
10^8 CFU/mL) with turbidity assessed using a Sensititre Nephelometer (Trek Diagnostics Systems Ltd, UK). 50 µL of this bacterial suspension was transferred to 10 mL of MHII broth to give a final bacterial concentration ≅ 5 × 10^5 CFU/mL (acceptable range 3 – 7 × 10^5 CFU/mL). 50 µL of bacterial suspension was pipetted into each well (except the medium control well, where 50 µL MHII was pipetted). Final volume in each well was 100 µL. Plates were covered and incubated without shaking for 18-20 h at 35 °C ± 2 °C. MIC was read visually, as complete inhibition of growth by the unaided eye, using the medium-only wells as the control. Each compound was assayed at least in duplicate.
Additionally, the MIC for compound 2 against clinical carbapenem-resistant strains of A. baumannii […]
determined at the Public Health Agency of Sweden (according to EUCAST recommendations).
In vitro Cytotoxicity Determination. In vitro cytotoxicity was determined by a fluorometric microculture cytotoxicity assay,7 based on hydrolysis of fluorescein diacetate to fluorescein by cells with intact plasma membranes. In short, HepG2 cells (hepatocellular carcinoma cells, ATCC), in Eagle's Minimum Essential Medium (ATCC) supplemented with 10 % fetal bovine serum, penicillin/streptomycin (100 U/100 µg/mL) and 2 mM L-glutamine, were seeded in 384-well assay plates at a density of 1000 cells/well. The cells were incubated over night at 37°C and compounds in 10 mM DMSO were added, to obtain final concentrations 64 µM – 0.25 µM in two-fold dilutions.
After incubation for 72 h at 37°C, the cells were pelleted and washed. Fluorescein diacetate was added (1 µL, 0.5 mg/mL) and the fluorescence [485 nm(exc)/530 nm(em.)] was measured after 50 min at 37°C. Bortezomib (2 µM) was used as positive control and dose response testing of doxorubicin (top concentration 2 µM) was performed repeatedly to follow assay performance over time. Cytotoxicity was assessed after 72 h with cell survival presented as survival index (SI, %) defined as fluorescence in test wells in percent of control cultures with blank values subtracted.
Criteria for a successful assay include a signal-to-noise ratio in control cultures >10, CV <30% and a 7 Lindhagen, E., Nygren, P., and Larsson, R. (2008) The fluorometric microculture cytotoxicity assay. Nat. […]
positive control (Bortezomib) SI of <5%. The half maximal inhibitory concentration (IC50) was determined from log concentration-effect curves using non-linear regression analysis.
Frequency of resistance (FoR). For the determination of the FoR, the MIC of compound 2 was first evaluated on solid MH-agar medium prepared in 35 mm diameter plates. Each plate contained 4 mL agar with the appropriate amount of compound. Bacterial cultures were grown and prepared as described for the MIC assay. 13 µL of bacterial culture diluted to 0.5 MacFarland was inoculated into 1 mL 0.9% NaCl resulting in ~2 × 10^6 CFU/mL. 5 µL of this bacterial suspension was spotted onto the surface of each agar plate (~10^4 CFU/spot). Plates were sealed and incubated at 37°C for 18–20 hours. Agar MIC was recorded according to CLSI guidelines as the lowest concentration of […]
faint haze caused by the inoculum. Then 9 cm plates were prepared with 25 mL MHII agar medium containing 4 × or 8 × solid MIC concentrations of test compounds and seeded with 100 µL of a bacterial preparation, concentrated by centrifugation from overnight cultures and resuspended in 0.9% NaCl, corresponding to 108 CFU and 109 CFU per plate, and spread on the agar using 4–5 glass beads of 4 mm diameter. Since CFU were evaluated using the McFarland turbidity standard, the exact CFU number plated was evaluated by plating of serial dilutions of each inoculum preparation on MHII agar plates. Plates were incubated at 37°C and colonies were counted at 24 h and 48 h post-plating. The frequencies of resistance were then calculated by counting the number of validated resistant colonies growing on antibiotic preparations divided by the evaluated number of CFU in the inoculum. […]

With `C/C=C1/NC(=O)[C@H](CCN)NC(=O)[C@H](CC(C)C)NC(=O)[C@H](CN)NC(=O)C[C@@H](CCCCCC(C)C)OC(=O)[C@H](CC(=O)O)NC(=O)[C@H](C(C)(C)O)NC(=O)[C@@H](Cc2ccccc2)NC(=O)[C@H](CN)NC(=O)[C@H]([C@@H](C)O)NC1=O` [Compound 1, cyclo(3-hydroxy-9-methyldecanoyl-DAPA1-Leu-DABA-ABA-Thr-DAPA2-Phe-OHVal-Asp)] ([Dap]L[Dab][X1]T[Dap][dF][Val(3-OH)]D; linker N-C via X3), the IC50 runs as follows: (read-out: IC50(μM) HepG2) 29 µM; (read-out: IC50(μg/mL) HepG2) 33 µg/mL.

Consider `C/C=C1/NC(=O)[C@H](CCN)NC(=O)[C@H](CC(C)C)NC(=O)[C@H](CN)NC(=O)C[C@@H](CCCCCCC)OC(=O)[C@H](CC(=O)O)NC(=O)[C@H](C(C)(C)O)NC(=O)[C@@H](Cc2ccccc2)NC(=O)[C@H](CN)NC(=O)[C@H]([C@@H](C)O)NC1=O` [Compound 2, isopedopeptin B] ([Dap]L[Dab][X1]T[Dap][dF][Val(3-OH)]D; linker N-C via X2), for which the IC50 is, setting by setting: (read-out: IC50(μM) HepG2) 50 µM; (read-out: IC50(μg/mL) HepG2) 56 µg/mL.

As for `C/C=C1/NC(=O)[C@H](CCN)NC(=O)[C@H](CC(C)C)NC(=O)[C@H](CN)NC(=O)C[C@@H](CC=CCCCCCC)OC(=O)[C@H](CC(=O)O)NC(=O)[C@H](C(C)(C)O)NC(=O)[C@@H](Cc2ccccc2)NC(=O)[C@H](CN)NC(=O)[C@H]([C@@H](C)O)NC1=O` [Compound 3, isopedopeptin C] ([Dap]L[Dab][X1]T[Dap][dF][Val(3-OH)]D; linker N-C via X7), the IC50 (read-out: IC50(μM) HepG2) is 29 µM and the IC50 (read-out: IC50(μg/mL) HepG2) amounted to 33 µg/mL.

For the molecule `C/C=C1/NC(=O)[C@H](CCN)NC(=O)[C@H](CC(C)C)NC(=O)[C@H](CN)NC(=O)C[C@@H](CCCCCCC)OC(=O)[C@H](CC(=O)O)NC(=O)[C@H](C(C)C)NC(=O)[C@@H](Cc2ccccc2)NC(=O)[C@H](CN)NC(=O)[C@H]([C@@H](C)O)NC1=O` [Compound 4, isopedopeptin D] ([Dap]L[Dab][X1]T[Dap][dF]VD; linker N-C via X2), the IC50 by setting is: (read-out: IC50(μM) HepG2) 9 µM; (read-out: IC50(μg/mL) HepG2) 10 µg/mL.

For the molecule `C/C=C1/NC(=O)[C@H](CCN)NC(=O)[C@H](CC(C)C)NC(=O)[C@H](CN)NC(=O)C[C@@H](CCCCCC(C)C)OC(=O)[C@H](CC(=O)O)NC(=O)[C@H](C(C)C)NC(=O)[C@@H](Cc2ccccc2)NC(=O)[C@H](CN)NC(=O)[C@H]([C@@H](C)O)NC1=O` [Compound 5, Isopedopeptin E] ([Dap]L[Dab][X1]T[Dap][dF]VD; linker N-C via X3), the IC50 is, setting by setting: (read-out: IC50(μM) HepG2) 13 µM; (read-out: IC50(μg/mL) HepG2) 14 µg/mL.

In the case of `C/C=C1/NC(=O)[C@H](CCN)NC(=O)[C@H](CC(C)C)NC(=O)[C@H](CN)NC(=O)C[C@@H](CCCCCCCC(C)C)OC(=O)[C@H](CC(=O)O)NC(=O)[C@H](C(C)(C)O)NC(=O)[C@@H](Cc2ccccc2)NC(=O)[C@H](CN)NC(=O)[C@H]([C@@H](C)O)NC1=O` [Compound 6, Isopedopeptin F] ([Dap]L[Dab][X1]T[Dap][dF][Val(3-OH)]D; linker N-C via X5), the IC50 runs as follows: (read-out: IC50(μM) HepG2) 9 µM; (read-out: IC50(μg/mL) HepG2) 10 µg/mL.

For the molecule `C/C=C1/NC(=O)[C@H](CCN)NC(=O)[C@H](CC(C)C)NC(=O)[C@H](CN)NC(=O)C[C@@H](CCCC=CCCC(C)C)OC(=O)[C@H](CC(=O)O)NC(=O)[C@H](C(C)C)NC(=O)[C@@H](Cc2ccccc2)NC(=O)[C@H](CN)NC(=O)[C@H]([C@@H](C)O)NC1=O` [Compound 7, Isopedopeptin G] ([Dap]L[Dab][X1]T[Dap][dF]VD; linker N-C via X4), the IC50 runs as follows: (read-out: IC50(μM) HepG2) 11 µM; (read-out: IC50(μg/mL) HepG2) 13 µg/mL.

Consider `C/C=C1/NC(=O)[C@H](CCN)NC(=O)[C@H](CC(C)C)NC(=O)[C@H](CN)NC(=O)C[C@@H](CC=CCCCCC(C)C)OC(=O)[C@H](CC(=O)O)NC(=O)[C@H](C(C)C)NC(=O)[C@@H](Cc2ccccc2)NC(=O)[C@H](CN)NC(=O)[C@H]([C@@H](C)O)NC1=O` [Compound 8, Isopedopeptin H] ([Dap]L[Dab][X1]T[Dap][dF]VD; linker N-C via X6), for which the IC50 reads like this: (read-out: IC50(μM) HepG2) 14 µM; (read-out: IC50(μg/mL) HepG2) 16 µg/mL.
